# Patent US9109155B2, “Heterocycle-functionalized luminogens exhibiting aggregation-induced emission” (THE HONG KONG UNIVERSITY OF SCIENCE AND TECHNOLOGY, priority 2013, dated 2015)
# “Also recorded” adds a separate entry of the source.
# Tests used:
# [1] = test system: caspase-3 activity in MCF-7 cells; test: CLSM imaging of caspase-3 activity / apoptosis in MCF-7 cells; type: cell-based
# Method: FIGS. 46a-46c show normal MCF-7 cells treated with Ac-DEVD-PyTPE (5 μM, 1% DMSO) for 2 h.
# FIGS. 46d-46f show apoptotic MCF-7 cells treated with Ac-DEVD-PyTPE (5 μM, 1% DMSO) and caspase-3 antibody. STS (3 μM) was used to induce cell apoptosis. Red=probe fluorescence; Green=immunofluorescence signal generated from anti-caspase-3 primary antibody and a FITC labeled secondary antibody.
# All images were acquired in the same way.
# Additionally, apoptotic MCF-7 cells were treated with both Ac-DEVD-PyTPE and commercial Annexin V-Alexa Fluor.
# [2] = Metabolic viability of MCF-7 cancer cells after incubation with probe; type: cell-based; conditions: human, 5, 10 and 20 μM for 12, 24 and 48 h, read-out: cell viability
# Excerpt: This is indicative of the low cytotoxicity of the Ac-DEVD-PyTPE probe.
# caspase-7 = molecular target: T1, caspase-7 (Homo sapiens, UniProt P55210); test: Ac-DEVD-PyTPE fluorescence turn-on assay with caspase-7; type: biochemical; conditions: caspase-7 vs pepsin, trypsin, papain, lysozyme; protein 20 μg mL^−1; λex 405 nm, λem 610 nm
# T1 sequence (P55210 24-198 limits assumed): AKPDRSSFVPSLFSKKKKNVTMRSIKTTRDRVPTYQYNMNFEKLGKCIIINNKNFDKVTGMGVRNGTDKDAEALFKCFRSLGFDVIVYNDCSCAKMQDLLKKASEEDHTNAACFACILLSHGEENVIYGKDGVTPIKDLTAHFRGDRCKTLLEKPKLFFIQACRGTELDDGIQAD
# T1 sequence (P55210 207-303 limits assumed): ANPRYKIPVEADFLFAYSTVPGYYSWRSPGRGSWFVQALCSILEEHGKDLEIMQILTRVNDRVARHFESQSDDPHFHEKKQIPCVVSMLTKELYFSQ
# Excerpt: (§1) Inset: photographs taken under UV illumination. λex=405 nm; λem=610 nm.
# (§2) As shown, caspase-3 and caspase-7 display respectively about 43- and 36-fold higher changes in (I−I0)/I0 than the other four enzymes.
# caspase-3 = molecular target: T2, caspase-3 (Homo sapiens, UniProt P42574); test: Ac-DEVD-PyTPE fluorescence turn-on assay with caspase-3 in PIPES buffer; type: biochemical
# T2 sequence (P42574 29-175 limits assumed): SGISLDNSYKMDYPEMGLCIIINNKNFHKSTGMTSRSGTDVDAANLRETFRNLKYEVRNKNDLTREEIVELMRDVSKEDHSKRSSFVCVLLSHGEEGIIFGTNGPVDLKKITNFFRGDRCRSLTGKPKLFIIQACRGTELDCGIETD
# T2 sequence (P42574 176-277 limits assumed): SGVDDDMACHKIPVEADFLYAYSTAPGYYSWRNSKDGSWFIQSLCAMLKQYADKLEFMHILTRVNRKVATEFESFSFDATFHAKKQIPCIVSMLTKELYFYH
# Method: [caspase-3]=5 μg mL^−1, [Ac-DEVD-PyTPE]=10 μM.
# as §1
# Particles with an average diameter of 92 nm formed in addition to the increase of fluorescence in the solution (FIG. 43a). […] The caspase-3/7 catalyzed hydrolysis of Ac-DEVD-PyTPE is shown in the reaction scheme below.
# In the absence of caspase-3, nearly no change in fluorescence is observed, confirming that Ac-DEVD-PyTPE is specifically recognized and cleaved by caspase-3.
# as §2
# subcutaneous C6 tumor = test: In vivo and ex vivo fluorescence imaging of apoptosis in C6 tumor-bearing mice
# Method: Only apoptotic tumors were clearly visualized.
# Subcutaneous C6 tumor-bearing mice with and without intravenous injection of STS were imaged for 30 min using an IVIS spectrum imaging system. […] In contrast, the fluorescence signals from the tumor-bearing animals without treatment of STS and normal tissues are very weak. […] Additionally, the fluorescence changes in tumoral and normal tissues as a function of time for each experiment are shown in FIG. 50b. A 3-fold fluorescence enhancement of the apoptotic tumoral tissues relative to normal tissues is observed as early as 5 min after injection of Ac-DEVD-PyTPE, but only a slight fluorescence increase is observed over 15 min.
# FIG. 50c show IVIS spectrum analysis of apoptotic and non-apoptotic tumors that were excised immediately after in vivo imaging.
# HeLa cells = test: Photobleaching under continuous laser excitation in stained HeLa cells; type: cell-based; conditions: continuous excitation 180 s, 0.6 mW; 405 nm for TPEPy-PF6, 588 nm for MitoTracker Red
# Solubility = conditions: for solubility in common organic solvents: THF, toluene, DCM, chloroform
# [3] = Fluorescent sensing of Hg2+ in aqueous buffer and in solid film
# Method: I0=the emission intensity at 640 nm in absence of Hg^2+. Inset: photographs of TPEBe-I in aqueous buffer with [Hg^2+] of 0 and 2.0 mM taken under 365 nm UV illumination. Solution concentration: 20 μM; excitation wavelength: 480 nm.
# Black bars represent the addition of different metal ion (2 mM) to solution of the TPEBe-I. Red bars represent the subsequent addition of 2 mM Hg^2+ to the solution. λex=480 nm. λem=640 nm.
# Accordingly, in one embodiment, the present subject matter relates to the use of Hg^2+ to bind to iodine ions in TPEBe-I in order to restore the emission of the cationic luminogen. […] In addition, the spectrum slightly red-shifted with increasing concentration of Hg^2+. […] When the concentration of Hg^2+ is 2.0 mM, the emission intensity of TPEBe-I is enhanced 80-fold. Moreover, the emission color also changes from dark into bright red under 365 nm UV illumination. Accordingly, another embodiment of the present subject matter relates to the use of TPEBe-I luminogens as an “off-on” sensor for Hg^2+ in aqueous solution.
# In addition, the present subject matter relates to using the TPEBe-I luminogen as a fluorescent sensor for Hg^2+.
# This is likely due to protons combining with iodine ions, leading to a faint increase in emission. In contrast, under basic conditions (pH≧7), TPEBe-I in the absence of Hg^2+ is weakly emissive due to the quenching effect of the iodine ions. […] The emission intensity decreases at a pH greater than 8, but is still higher than the emission intensity of TPEBe-I in the absence of Hg^2+. […] The lower emission intensity of TPEBe-I under more basic conditions is attributed to the formation of Hg(OH)2, thereby reducing the amount of free Hg^2+. In addition, the hydroxyl group (OH) in basic conditions can destroy the structure of TPEBe-I, resulting in inactivation of its sensing ability.
# In another embodiment, a solid-state fluorescent probe for the detection of Hg^2+ was developed using the TPEBe-I luminogen. […] As shown, the spots of film polluted by the aqueous solution containing Hg^2+ changed to a red color with varying degrees while the untreated surrounding areas show the initial dark color. This illustrates that the solid-state film of TPEBe-I has a very sensitive response to Hg^2+ in a pure aqueous solution. Therefore, one embodiment of the present subject matter relates to the use a TPEBe-I solid-state fluorescent probe for detecting and tracking the amount of Hg^2+ in an aqueous solution. In one embodiment, the detection amount can reach 1 μM ([…]).
# [4] = Fluorescent sensing of ATP in aqueous solution with 1% DMSO
# Method: I0=PL intensity at 620 nm in absence of ATP. Inset in B: plot of (I−I0)/I0 value versus concentration of ATP from 0 to 20 μM.
# I0=photoluminescence intensity at 620 nm in absence of nucleotide. Inset: Photographs of TPBBe-I in aqueous solution with 1% DMSO with various nucleotides (600 μM) taken under 365 nm UV illumination.
# When the concentration of ATP is 600 μM, the emission intensity of TPEBe-I increases 20-fold. Moreover, the emission color also changes from dark into bright red under 365 nm UV illumination (FIG. 53b). […] Obviously, the value of (I−I0)/I0 has a linear relationship with ATP from 0 to 20 μM.
# The fluorescence response of TPEBe-I was carried out using ATP, ADP and AMP. […] Accordingly, one embodiment relates to the use of TPEBe-I as a highly sensitive and selective fluorescent sensor for ATP.
# C6 tumor = test: In vivo screening of apoptosis inducing agents in C6 tumor-bearing mice; conditions: treated overnight, probe injected into tumor, 15 min; compared with DMSO, cisplatin, sodium ascorbate
# Method: C6 tumor-bearing mice were treated with several compounds, namely DMSO, STS, cisplatin (CIS), and sodium ascorbate (Na asb), overnight, and Ac-DEVD-PyTPE was subsequently injected into the tumor directly. After 15 min incubation, the mice were imaged using an IVIS spectrum imaging system.
# MCF-7 cells = test: In situ screening of apoptosis inducers in MCF-7 cells with Ac-DEVD-PyTPE; type: cell-based; conditions: 3 μM in DMSO, 2 h; compared with sodium ascorbate and cisplatin
# Method: [Ac-DEVD-PyTPE]=3 μM. All images were acquired in the same way.
# Three known apoptosis inducers, sodium ascorbate, cisplatin and STS, were used to treat MCF-7 cells. After the cells were incubated with Ac-DEVD-PyTPE for 2 h, each compound (3 μM in DMSO) was added into the chamber for an additional 2 h incubation. The apoptosis-inducing capabilities of these agents were evaluated by monitoring the cell fluorescence increase with a confocal microscopy.
# [5] = test system: mitochondria of HeLa cells; test: Living HeLa cell staining and co-staining with MitoTracker Red; type: cell-based; conditions: 15 min
# Method: In a further embodiment, the present subject matter is directed to the use of the TPEPy-PF6 luminogen as a fluorescent stain for living cell imaging. Nanoaggregates of TPEPy-PF6 were prepared in minimum essential medium/DMSO mixtures and the HeLa cells were imaged using a standard cell-staining protocol. The living cells were incubated with TPEPy-PF6 (5 μM) for 15 min and then washed three times with phosphate buffered saline solution.
# Living cells were incubated with both mitochondria-targeted dye MitoTracker Red (100 nM) and TPEPy-PF6 (5 μM) for 15 min at 37° C. by the above procedure. […] Therefore, one embodiment of the present subject matter relates to the use of the TPEPy-PF6 luminogen to exclusively stain the mitochondria of living cells.
# [6] = excised immediately after in vivo imaging
smiles,measurement,setting,value
CC(=O)N[C@@H](CC(=O)O)C(=O)N[C@@H](CCC(=O)O)C(=O)N[C@H](C(=O)N[C@@H](CC(=O)O)C(=O)N[C@@H](Cc1cn(CCCC[n+]2ccc(/C=C/c3ccc(C(=C(c4ccccc4)c4ccccc4)c4ccccc4)cc3)cc2)nn1)C(N)=O)C(C)C [Ac-DEVD-PyTPE],probe fluorescence in normal un-induced cells,"[1]; 5 μM, 1% DMSO, 2 h",extremely low fluorescence signal
same,probe fluorescence in STS-induced apoptotic cells,"[1]; probe 5 μM, STS 3 μM",strong fluorescence signals
same,viability,[2],~100%
same,fold higher change in (I−I0)/I0 than the other four enzymes,caspase-7,~36 fold
same,fluorescence of the probe treated with caspase-3,"caspase-3; PIPES buffer pH 7.2, caspase-3 5 μg mL^−1, probe 10 μM",strong fluorescence signals
same,fold higher change in (I−I0)/I0 than the other four enzymes,"caspase-3; caspase-3 vs pepsin, trypsin, papain, lysozyme, protein 20 μg mL^−1, λex 405 nm, λem 610 nm",about 43 fold
same,fluorescence enhancement of apoptotic tumoral tissues relative to normal tissues,"subcutaneous C6 tumor; STS pretreatment, 5 min after intratumoral injection of probe",3 fold
same,fluorescence of excised tumor/(+)STS tissues,subcutaneous C6 tumor; [6],high fluorescence signal
same,fluorescence of excised tumor/(−)STS tissues,subcutaneous C6 tumor; [6],almost no fluorescence
"COC[C@@H]1CCCN1S(=O)(=O)c1ccc2c(c1)C(=O)C(=O)N2 [MPS, 5-[(S)-(+)-2-(methoxymethyl)pyrrolidino]sulfonylisatin, reference compound]",probe fluorescence in STS-induced cells pre-treated with inhibitor,[1]; inhibitor 10 μM before incubation with Ac-DEVD-PyTPE,greatly reduced
same,inhibition of caspase-3 cleavage of Ac-DEVD-PyTPE (fluorescence),"caspase-3; pre-treatment with inhibitor 10 μM, PIPES buffer",Most of the fluorescence was readily competed away
"ClCc1ccc(C2=c3cc4c5c(c3Oc3c2cc2c6c3CCCN6CCC2)CCC[N+]=5CCC4)cc1.[Cl-] [MitoTracker Red, reference compound]",luminescence intensity remaining relative to initial value,HeLa cells,about 20%
CC[n+]1c(/C=C/c2ccc(C(=C(c3ccccc3)c3ccccc3)c3ccccc3)cc2)sc2ccccc21 [TPEBe-I],solubility in common organic solvents,Solubility,soluble
same,solubility in water,Solubility,insoluble
same,emission intensity enhancement,"[3]; Hg^2+ 2.0 mM, luminogen 20 μM, pH 7.4 HEPES, 1% DMSO, λex 480 nm",80 fold
same,emission change with other metal ions,"[3]; Zn, Ni, Co, Cd, Cu, Mn, Ca, Fe, Mg, Ag, Pd ions 2.0 mM",negligible changes
same,detection amount of Hg^2+,"[3]; solid-state film, aqueous Hg^2+ 5 μL",1 µM
same,emission intensity increase,"[4]; ATP 600 μM, luminogen 20 μM, λex 480 nm",20 fold
same,emission change with ADP and AMP,"[4]; other nucleotides, aqueous solution with 1% DMSO",negligible changes
"CN[C@@H]1C[C@H]2O[C@@](C)([C@@H]1OC)n1c3ccccc3c3c4c(c5c6ccccc6n2c5c31)C(=O)NC4 [STS, staurosporine]",efficacy of apoptosis inducing agent (tumor fluorescence),C6 tumor,strongest fluorescence
same,apoptosis-inducing capability (cell fluorescence increase),MCF-7 cells,strongest fluorescence enhancement
CC[n+]1c(/C=C/c2ccc(C(=C(c3ccccc3)c3ccccc3)c3ccccc3)cc2)sc2ccccc21 [TPEBe-PF6],solubility in common organic solvents,Solubility,soluble
same,solubility in water,Solubility,insoluble; also recorded: not soluble
CC[n+]1c(/C=C/c2ccc(C(=C(c3ccccc3)c3ccccc3)c3ccccc3)cc2)sc2ccccc21 [TPEBe-ClO4],solubility in common organic solvents,Solubility,soluble
same,solubility in water,Solubility,insoluble
same,emission intensity upon addition of Hg^2+,"[3]; Hg^2+ 0-2.0 mM, pH 7.4 HEPES, 1% DMSO",also increased
C[n+]1ccc(/C=C/c2ccc(C(=C(c3ccccc3)c3ccccc3)c3ccccc3)cc2)cc1 [TPEPy-PF6],solubility in water,Solubility,not soluble
same,luminescence intensity remaining relative to initial value,HeLa cells,~70%
same,"mitochondria staining: position, shape and amounts compared with MitoTracker Red","[5]; 5 μM with MitoTracker Red 100 nM, 37° C.",the same as for MitoTracker Red
same,toxicity to living cells (cell morphology),[5]; 5 μM,low toxicity
